Results published in PubChem BioAssay (NCI).
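How tested: cells in 96-well plates exposed to compound for 48 hours at five concentrations. GI50: concentration for 50% inhibition of growth. At the TGI there is no net growth.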

Assays:
Assay in all cases: growth of human tumour cells (NCI), 48 h
786-0 renal = system: 786-0 renal
A498 renal = system: A498 renal
A549 NSCLC = system: A549 NSCLC
ACHN renal = system: ACHN renal
BT-549 breast = system: BT-549 breast
CAKI-1 renal = system: CAKI-1 renal
CCRF-CEM leukemia = system: CCRF-CEM leukemia
COLO 205 colon = system: COLO 205 colon
DU-145 prostate = system: DU-145 prostate
EKVX NSCLC = system: EKVX NSCLC
HCC-2998 colon = system: HCC-2998 colon
HCT-116 colon = system: HCT-116 colon
HCT-15 colon = system: HCT-15 colon
HL-60(TB) leukemia = system: HL-60(TB) leukemia
HOP-62 NSCLC = system: HOP-62 NSCLC
HOP-92 NSCLC = system: HOP-92 NSCLC
HS 578T breast = system: HS 578T breast
HT29 colon = system: HT29 colon
IGROV1 ovarian = system: IGROV1 ovarian
K-562 leukemia = system: K-562 leukemia
KM12 colon = system: KM12 colon
LOX IMVI melanoma = system: LOX IMVI melanoma
M14 melanoma = system: M14 melanoma
MALME-3M melanoma = system: MALME-3M melanoma
MCF7 breast = system: MCF7 breast
MDA-MB-231 breast = system: MDA-MB-231 breast
MDA-MB-435 = system: MDA-MB-435
MOLT-4 leukemia = system: MOLT-4 leukemia
NCI-H226 lung = system: NCI-H226 lung
NCI-H460 lung = system: NCI-H460 lung
NCI-H522 lung = system: NCI-H522 lung
NCI/ADR-RES ovarian = system: NCI/ADR-RES ovarian
OVCAR-3 ovarian = system: OVCAR-3 ovarian
OVCAR-4 ovarian = system: OVCAR-4 ovarian
OVCAR-5 ovarian = system: OVCAR-5 ovarian
OVCAR-8 ovarian = system: OVCAR-8 ovarian
PC-3 prostate = system: PC-3 prostate
RPMI-8226 leukemia = system: RPMI-8226 leukemia
RXF 393 renal = system: RXF 393 renal
SF-268 CNS = system: SF-268 CNS
SF-295 CNS = system: SF-295 CNS
SF-539 CNS = system: SF-539 CNS
SK-MEL-2 melanoma = system: SK-MEL-2 melanoma
SK-MEL-28 melanoma = system: SK-MEL-28 melanoma
SK-MEL-5 melanoma = system: SK-MEL-5 melanoma
SK-OV-3 ovarian = system: SK-OV-3 ovarian
SN12C renal = system: SN12C renal
SNB-19 CNS = system: SNB-19 CNS
SNB-75 CNS = system: SNB-75 CNS
SR leukemia = system: SR leukemia
SW-620 colon = system: SW-620 colon
T-47D breast = system: T-47D breast
TK-10 renal = system: TK-10 renal
U251 CNS = system: U251 CNS
UACC-257 melanoma = system: UACC-257 melanoma
UACC-62 melanoma = system: UACC-62 melanoma
UO-31 renal = system: UO-31 renal

Compound: CCCC(=O)NC(c1cccnc1)c1cc(C(C)(C)C)c2cccnc2c1O (centres undefined)
- GI50 (786-0 renal): 4.61 µM
- TGI (786-0 renal): > 100 µM
- GI50 (A498 renal): > 100 µM
- TGI (A498 renal): > 100 µM
- GI50 (A549 NSCLC): 5.68 µM
- TGI (A549 NSCLC): > 100 µM
- GI50 (ACHN renal): 3.62 µM
- TGI (ACHN renal): > 100 µM
- GI50 (BT-549 breast): 5.06 µM
- TGI (BT-549 breast): > 100 µM
- GI50 (CAKI-1 renal): 3.19 µM
- TGI (CAKI-1 renal): > 100 µM
- GI50 (CCRF-CEM leukemia): 2.63 µM
- TGI (CCRF-CEM leukemia): > 100 µM
- GI50 (COLO 205 colon): 3.25 µM
- TGI (COLO 205 colon): > 100 µM
- GI50 (DU-145 prostate): 11.3 µM
- TGI (DU-145 prostate): > 100 µM
- GI50 (EKVX NSCLC): 5.19 µM
- TGI (EKVX NSCLC): > 100 µM
- GI50 (HCC-2998 colon): 7.41 µM
- TGI (HCC-2998 colon): > 100 µM
- GI50 (HCT-116 colon): 3.74 µM
- TGI (HCT-116 colon): > 100 µM
- GI50 (HCT-15 colon): 3.24 µM
- TGI (HCT-15 colon): > 100 µM
- GI50 (HL-60(TB) leukemia): 2.86 µM
- TGI (HL-60(TB) leukemia): 21.1 µM
- GI50 (HOP-62 NSCLC): 4.15 µM
- TGI (HOP-62 NSCLC): > 100 µM
- GI50 (HOP-92 NSCLC): 1.53 µM
- TGI (HOP-92 NSCLC): 16.2 µM
- GI50 (HS 578T breast): 7.31 µM
- TGI (HS 578T breast): > 100 µM
- GI50 (HT29 colon): 4.32 µM
- TGI (HT29 colon): > 100 µM
- GI50 (IGROV1 ovarian): 3.7 µM
- TGI (IGROV1 ovarian): > 100 µM
- GI50 (K-562 leukemia): 3.45 µM
- TGI (K-562 leukemia): > 100 µM
- GI50 (KM12 colon): 6.8 µM
- TGI (KM12 colon): > 100 µM
- GI50 (LOX IMVI melanoma): 3.78 µM
- TGI (LOX IMVI melanoma): > 100 µM
- GI50 (M14 melanoma): 3.91 µM
- TGI (M14 melanoma): 44 µM
- GI50 (MALME-3M melanoma): 10.6 µM
- TGI (MALME-3M melanoma): > 100 µM
- GI50 (MCF7 breast): 2.97 µM
- TGI (MCF7 breast): > 100 µM
- GI50 (MDA-MB-231 breast): 6.3 µM
- TGI (MDA-MB-231 breast): > 100 µM
- GI50 (MDA-MB-435): 6.94 µM
- TGI (MDA-MB-435): > 100 µM
- GI50 (MOLT-4 leukemia): 3.53 µM
- TGI (MOLT-4 leukemia): > 100 µM
- GI50 (NCI-H226 lung): 3.75 µM
- TGI (NCI-H226 lung): 83.1 µM
- GI50 (NCI-H460 lung): 3.89 µM
- TGI (NCI-H460 lung): > 100 µM
- GI50 (NCI-H522 lung): 2.78 µM
- TGI (NCI-H522 lung): 20.4 µM
- GI50 (NCI/ADR-RES ovarian): 2.54 µM
- TGI (NCI/ADR-RES ovarian): > 100 µM
- GI50 (OVCAR-3 ovarian): 3.98 µM
- TGI (OVCAR-3 ovarian): > 100 µM
- GI50 (OVCAR-4 ovarian): 3.82 µM
- TGI (OVCAR-4 ovarian): > 100 µM
- GI50 (OVCAR-5 ovarian): 6.96 µM
- TGI (OVCAR-5 ovarian): > 100 µM
- GI50 (OVCAR-8 ovarian): 4 µM
- TGI (OVCAR-8 ovarian): > 100 µM
- GI50 (PC-3 prostate): 4.39 µM
- TGI (PC-3 prostate): > 100 µM
- GI50 (RPMI-8226 leukemia): 4.35 µM
- TGI (RPMI-8226 leukemia): > 100 µM
- GI50 (RXF 393 renal): 4.31 µM
- TGI (RXF 393 renal): > 100 µM
- GI50 (SF-268 CNS): 5.11 µM
- TGI (SF-268 CNS): > 100 µM
- GI50 (SF-295 CNS): 4.24 µM
- TGI (SF-295 CNS): > 100 µM
- GI50 (SF-539 CNS): 4.37 µM
- TGI (SF-539 CNS): > 100 µM
- GI50 (SK-MEL-2 melanoma): 6.7 µM
- TGI (SK-MEL-2 melanoma): > 100 µM
- GI50 (SK-MEL-28 melanoma): 4.86 µM
- TGI (SK-MEL-28 melanoma): > 100 µM
- GI50 (SK-MEL-5 melanoma): 13.7 µM
- TGI (SK-MEL-5 melanoma): 48.4 µM
- GI50 (SK-OV-3 ovarian): 3.46 µM
- TGI (SK-OV-3 ovarian): 71.7 µM
- GI50 (SN12C renal): 7.13 µM
- TGI (SN12C renal): > 100 µM
- GI50 (SNB-19 CNS): 8.15 µM
- TGI (SNB-19 CNS): > 100 µM
- GI50 (SNB-75 CNS): 2.51 µM
- TGI (SNB-75 CNS): 16.4 µM
- GI50 (SR leukemia): 3.69 µM
- TGI (SR leukemia): > 100 µM
- GI50 (SW-620 colon): 6.07 µM
- TGI (SW-620 colon): > 100 µM
- GI50 (T-47D breast): 3.59 µM
- TGI (T-47D breast): > 100 µM
- GI50 (TK-10 renal): 5.48 µM
- TGI (TK-10 renal): > 100 µM
- GI50 (U251 CNS): 4.12 µM
- TGI (U251 CNS): > 100 µM
- GI50 (UACC-257 melanoma): 3.82 µM
- TGI (UACC-257 melanoma): 66.4 µM
- GI50 (UACC-62 melanoma): 3.24 µM
- TGI (UACC-62 melanoma): 19.6 µM
- GI50 (UO-31 renal): 2.22 µM
- TGI (UO-31 renal): > 100 µM
